Biological target: T1, B1R receptor of the rat (CHO K1 cells stably transfected with the B1R gene of the rat) (Rattus norvegicus, UniProt P97583)
T1 construct: expressed in transfected cells; host or cells: CHO K1 cells (Chinese hamster ovary), stably transfected
T1 sequence (P97583 1-337): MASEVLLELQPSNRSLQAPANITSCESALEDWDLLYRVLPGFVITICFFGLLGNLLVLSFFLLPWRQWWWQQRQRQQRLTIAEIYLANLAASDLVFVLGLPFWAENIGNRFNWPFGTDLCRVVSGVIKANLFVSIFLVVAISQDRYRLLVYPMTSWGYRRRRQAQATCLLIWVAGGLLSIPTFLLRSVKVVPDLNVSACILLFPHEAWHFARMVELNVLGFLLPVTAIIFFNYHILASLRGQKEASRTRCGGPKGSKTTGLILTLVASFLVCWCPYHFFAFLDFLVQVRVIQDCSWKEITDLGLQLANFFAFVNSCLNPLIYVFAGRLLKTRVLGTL
Assay: Functional study on the bradykinin receptor 1 (B1R), Ca2+ fluorescence (Fluo-4) FLIPR/Novostar assay, rB1R cells
Format: cell-based
Details: CHO-K1, 10 μM, read-out: % Inhibition (r-B1R) at 10 μM
Description: The agonistic or antagonistic action of substances can be quantified on the bradykinin receptor 1 (B1R) of the species human and rat using ectopically expressing cell lines (CHO K1 cells) and with the aid of a Ca^2+-sensitive dye (Fluo-4) using a fluorescent imaging plate reader (FLIPR). The indication in % activation is based on the Ca^2+ signal after addition of Lys-Des-Arg^9-bradykinin (0.5 nM) or Des-Arg^9-bradykinin (100 nM). Antagonists lead to suppression of the Ca^2+ influx after the addition of the agonist. % Inhibition compared with the maximum achievable inhibition is indicated.
The agonistic or antagonistic action of substances can be determined on the bradykinin receptor 1 (B1R) of the species human and rat using the following assay. According to this assay, the increase in intracellular Ca^2+ following administration of a B1R agonist is quantified with the aid of a Ca^2+-sensitive dye (Fluo-4 type, Molecular Probes Europe BV, Leiden, Netherlands) using a Fluorescent Imaging Plate Reader (FLIPR, Molecular Devices, Sunnyvale, USA) and/or using a Novostar (BMG Labtech GmbH, Offenburg, Germany).
Chinese hamster ovary cells (CHO K1 cells) which have been stably transfected with the human B1R gene (hB1R cells) or with the B1R gene of the rat (rB1R cells) are used. For functional studies, the cells are plated out on black 96-well plates having a clear base (BD Biosciences, Heidelberg, Germany or Greiner, Frickenhausen, Germany) in a density of 20,000-35,000 cells/well. The cells are left overnight at 37° C. and with 5% CO2 in culture medium (hB1R cells: Nutrient Mixture Ham's F12, Gibco Invitrogen GmbH, Karlsruhe, Germany or DMEM, Sigma-Aldrich, Taufkirchen, Germany; rB1R cells: D-MEM/F12, Gibco Invitrogen GmbH, Karlsruhe, Germany), with 10 vol. % FBS (fetal bovine serum, Gibco Invitrogen GmbH, Karlsruhe, Germany or PAN Biotech GmbH, Aidenbach, Germany). On the following day, the cells are loaded for 60 minutes at 37° C. with 2.13 μM Fluo-4 (Molecular Probes Europe BV, Leiden, Netherlands) in HBSS buffer (Hank's buffered saline solution, Gibco Invitrogen GmbH, Karlsruhe, Germany) […] (Sigma-Aldrich, Taufkirchen, Germany) and 10 mM HEPES (Sigma-Aldrich, Taufkirchen, Germany). The plates are then washed twice with HBSS buffer, and HBSS buffer additionally containing 0.1% BSA (bovine serum albumin; Sigma-Aldrich, Taufkirchen, Germany), 5.6 mM glucose and 0.05% gelatin (Merck KGaA, Darmstadt, Germany) is added to the plates. After incubation for a further 20 minutes at room temperature, the plates are inserted into the FLIPR or Novostar for Ca^2+ measurement. Alternatively, washing is carried out with buffer A (15 mM HEPES, 80 mM NaCl, 5 mM KCl, 1.2 mM CaCl2, 0.7 mM MgSO4, 2 g/l glucose, 2.5 mM probenecid) followed by loading with buffer A with added 2.5 μM Fluo-4 and 0.025% Pluronic F127 (Sigma-Aldrich, Taufkirchen, Germany). The cells are then washed twice with buffer A and incubated for 30 minutes at room temperature with buffer A additionally containing 0.05% BSA and 0.05% gelatin and are then inserted into the FLIPR or Novostar for Ca^2+ measurement. The Ca^2+-dependent fluorescence is measured before and after the addition of substances (λex=488 nm, λem=540 nm). Quantification is carried out by measuring the highest fluorescence intensity (FC, fluorescence counts) over time.
The FLIPR protocol consists of 2 substance additions, which are pipetted in the FLIPR. In the case of measurements using the Novostar, only the second substance addition is pipetted in the device. Both devices measure the fluorescence intensity over time. Test substances (10 μM) are first pipetted onto the cells and the intracellular Ca^2+ increase is compared with the control (hB1R: Lys-Des-Arg^9-bradykinin>=50 nM; rB1R: Des-Arg^9-bradykinin>=1 μM). This gives the % activation, based on the Ca^2+ signal after addition of Lys-Des-Arg^9-bradykinin (>=50 nM) or Des-Arg^9-bradykinin (>=1 μM). […]

SMILES | inhibition at 10 µM
CN(C(=O)c1ccc2c(c1)C(NC(=O)c1cc(F)ccc1Cl)CC2)C1CCN(c2ccncc2)CC1 (centres unmarked) [CC_H-200, 3-[(2-Chloro-5-fluoro-benzoyl)amino]-N-methyl-N-(1-pyridin-4-yl-piperidin-4-yl)-2,3-dihydro-1H-indene-5-carboxylic acid amide] | 111%
CN(C(=O)c1ccc2c(c1)C(NC(=O)c1cc(C(F)(F)F)ccc1Cl)CC2)C1CCN(c2ccncc2)CC1 (centres unmarked) [CC_H-201, 3-[[2-Chloro-5-(trifluoromethyl)-benzoyl]amino]-N-methyl-N-(1-pyridin-4-yl-piperidin-4-yl)-2,3-dihydro-1H-indene-5-carboxylic acid amide] | 111%
Cc1ccc(F)c(C(=O)NC2CCc3ccc(C(=O)N(C)C4CCN(c5ccncc5)CC4)cc32)c1Cl (centres unmarked) [CC_H-202, 3-[(2-Chloro-6-fluoro-3-methyl-benzoyl)amino]-N-methyl-N-(1-pyridin-4-yl-piperidin-4-yl)-2,3-dihydro-1H-indene-5-carboxylic acid amide] | 111%
CN(C(=O)c1ccc2c(c1)C(NC(=O)c1cc(Cl)ccc1Cl)CC2)C1CCN(c2ccncc2)CC1 (centres unmarked) [CC_H-203, 3-[(2,5-Dichloro-benzoyl)amino]-N-methyl-N-(1-pyridin-4-yl-piperidin-4-yl)-2,3-dihydro-1H-indene-5-carboxylic acid amide] | 111%
CN(C(=O)c1ccc2c(c1)C(NC(=O)c1c(Cl)cccc1C(F)(F)F)CC2)C1CCN(c2ccncc2)CC1 (centres unmarked) [CC_H-204, 3-[[2-Chloro-6-(trifluoromethyl)-benzoyl]amino]-N-methyl-N-(1-pyridin-4-yl-piperidin-4-yl)-2,3-dihydro-1H-indene-5-carboxylic acid amide] | 110%
CN(C(=O)c1ccc2c(c1)C(NC(=O)C1CC1)CC2)C1CCN(c2ccncc2)CC1 (centres unmarked) [CC_H-205, 3-(Cyclopropanecarbonylamino)-N-methyl-N-(1-pyridin-4-yl-piperidin-4-yl)-2,3-dihydro-1H-indene-5-carboxylic acid amide] | 98%
CN(C(=O)c1ccc2c(c1)C(NC(=O)CC(C)(C)C)CC2)C1CCN(c2ccncc2)CC1 (centres unmarked) [CC_H-206, 3-(3,3-Dimethyl-butanoylamino)-N-methyl-N-(1-pyridin-4-yl-piperidin-4-yl)-2,3-dihydro-1H-indene-5-carboxylic acid amide] | 109%
COCC(=O)NC1CCc2ccc(C(=O)N(C)C3CCN(c4ccncc4)CC3)cc21 (centres unmarked) [CC_H-207, 3-[(2-Methoxy-acetyl)amino]-N-methyl-N-(1-pyridin-4-yl-piperidin-4-yl)-2,3-dihydro-1H-indene-5-carboxylic acid amide] | 89%
Cc1ccc(F)c(C(=O)N(C)C2CCc3ccc(C(=O)N(C)C4CCN(c5ccncc5)CC4)cc32)c1Cl (centres unmarked) [CC_H-209, 3-[(2-Chloro-6-fluoro-3-methyl-benzoyl)-methyl-amino]-N-methyl-N-(1-pyridin-4-yl-piperidin-4-yl)-2,3-dihydro-1H-indene-5-carboxylic acid amide] | 112%
CN(C(=O)c1ccc2c(c1)C(N(C)C(=O)C1CCCCC1)CC2)C1CCN(c2ccncc2)CC1 (centres unmarked) [CC_H-211, 3-(Cyclohexanecarbonyl-methyl-amino)-N-methyl-N-(1-pyridin-4-yl-piperidin-4-yl)-2,3-dihydro-1H-indene-5-carboxylic acid amide] | 108%
CN(C(=O)c1ccc2c(c1)C(N(C)C(=O)C1CC1)CC2)C1CCN(c2ccncc2)CC1 (centres unmarked) [CC_H-212, 3-(Cyclopropanecarbonyl-methyl-amino)-N-methyl-N-(1-pyridin-4-yl-piperidin-4-yl)-2,3-dihydro-1H-indene-5-carboxylic acid amide] | 108%
CN(C(=O)c1ccc2c(c1)C(N(C)C(=O)CC(C)(C)C)CC2)C1CCN(c2ccncc2)CC1 (centres unmarked) [CC_H-213, 3-(3,3-Dimethyl-butanoyl-methyl-amino)-N-methyl-N-(1-pyridin-4-yl-piperidin-4-yl)-2,3-dihydro-1H-indene-5-carboxylic acid amide] | 110%
CN(C(=O)c1ccc2c(c1)C(N(C)C(=O)c1cccc(C(F)(F)F)c1Cl)CC2)C1CCN(c2ccncc2)CC1 (centres unmarked) [CC_H-216, 3-[[2-Chloro-3-(trifluoromethyl)-benzoyl]-methyl-amino]-N-methyl-N-(1-pyridin-4-yl-piperidin-4-yl)-2,3-dihydro-1H-indene-5-carboxylic acid amide] | 110%

The remaining lines, values ahead:

inhibition at 10 µM | SMILES
111% | CN(C(=O)c1ccc2c(c1)C(N(C)C(=O)c1cc(F)ccc1Cl)CC2)C1CCN(c2ccncc2)CC1 (centres unmarked) [CC_H-208, 3-[(2-Chloro-5-fluoro-benzoyl)-methyl-amino]-N-methyl-N-(1-pyridin-4-yl-piperidin-4-yl)-2,3-dihydro-1H-indene-5-carboxylic acid amide]
112% | CN(C(=O)c1ccc2c(c1)C(N(C)C(=O)c1cc(Cl)ccc1Cl)CC2)C1CCN(c2ccncc2)CC1 (centres unmarked) [CC_H-210, 3-[(2,5-Dichloro-benzoyl)-methyl-amino]-N-methyl-N-(1-pyridin-4-yl-piperidin-4-yl)-2,3-dihydro-1H-indene-5-carboxylic acid amide]
65% | CC(=O)N(C)C1CCc2ccc(C(=O)N(C)C3CCN(c4ccncc4)CC3)cc21 (centres unmarked) [CC_H-215, 3-(Acetyl-methyl-amino)-N-methyl-N-(1-pyridin-4-yl-piperidin-4-yl)-2,3-dihydro-1H-indene-5-carboxylic acid amide]
94% | CN(C(=O)c1ccc2c(c1)C(N(C)C(=O)Nc1ccccc1Cl)CC2)C1CCN(c2ccncc2)CC1 (centres unmarked) [CC_H-217, 3-[[(2-Chlorophenyl)-carbamoyl]-methyl-amino]-N-methyl-N-(1-pyridin-4-yl-piperidin-4-yl)-2,3-dihydro-1H-indene-5-carboxylic acid amide]
109% | CN(C(=O)c1ccc2c(c1)C(N(C)C(=O)Nc1cccc(Cl)c1)CC2)C1CCN(c2ccncc2)CC1 (centres unmarked) [CC_H-218, 3-[[(3-Chlorophenyl)-carbamoyl]-methyl-amino]-N-methyl-N-(1-pyridin-4-yl-piperidin-4-yl)-2,3-dihydro-1H-indene-5-carboxylic acid amide]
86% | CN(C(=O)c1ccc2c(c1)C(N(C)C(=O)Nc1c(Cl)cccc1Cl)CC2)C1CCN(c2ccncc2)CC1 (centres unmarked) [CC_H-219, 3-[[(2,6-Dichloro-phenyl)-carbamoyl]-methyl-amino]-N-methyl-N-(1-pyridin-4-yl-piperidin-4-yl)-2,3-dihydro-1H-indene-5-carboxylic acid amide]
107% | CN(C(=O)c1ccc2c(c1)C(N(C)C(=O)Nc1cccc(Cl)c1Cl)CC2)C1CCN(c2ccncc2)CC1 (centres unmarked) [CC_H-220, 3-[[(2,3-Dichloro-phenyl)-carbamoyl]-methyl-amino]-N-methyl-N-(1-pyridin-4-yl-piperidin-4-yl)-2,3-dihydro-1H-indene-5-carboxylic acid amide]
